Data set [1] is described as follows: Plasma concentration in BALB/c mouse at 10 mg/kg, po at 6 hrs. Format: ADME, organism-based. Also on record: dose 10 mg/kg, route oral.
Data set [2] can be described thus: Plasma concentration in BALB/c mouse at 10 mg/kg, po at 1 hr. Format: ADME, organism-based. Also noted: dose 10 mg/kg, route oral.
Data set [3] is described as follows: Plasma concentration in BALB/c mouse at 10 mg/kg, iv at 6 hrs administered as bolus dose. Also on record: dose 10 mg/kg, route intravenous. Format: ADME, organism-based.
Data set [4] is described as follows: Plasma concentration in BALB/c mouse at 10 mg/kg, iv at 1 hr administered as bolus dose. Format: ADME, organism-based. Also on record: dose 10 mg/kg, route intravenous.
In data set [5] the target is Serine/threonine-protein kinase Chk2 (Homo sapiens, UniProt O96017).
Data set [6] in a line: Drug uptake in human SW620 cells xenografted in athymic nude mouse at 160 mg/kg, po measured at 6 to 12 hrs in presence of gemcitabine. Format: ADME, organism-based, SW-620. Also on record: dose 160 mg/kg, route oral. Conditions: in vivo. A general note: Xenograft models place foreign cells or tissue in a host animal.
Data set [7] can be described thus: Toxicity in po dosed mouse. Format: organism-based. Conditions: in vivo.
Data set [8] can be described thus: Thermodynamic solubility of the compound in water. Format: physicochemical.
Data set [9] can be described thus: Aqueous solubility in phosphate buffer at pH 6.5. Format: physicochemical.
For data set [10], the system named is Plasma. Briefly: Plasma protein binding in human. Format: ADME, cell-free.
In data set [11] the test system is Mus musculus. The experiment in a line: Oral bioavailability in BALB/c mouse at 10 mg/kg. Conditions: in vivo. Format: ADME, organism-based.
In data set [12] the test system is Mus musculus. The experiment in a line: Volume of distribution at steady state in BALB/c mouse at 10 mg/kg, iv and po. Format: ADME, organism-based. Also noted: dose 10 mg/kg, route oral. The conditions noted are these: in vivo.
The test system of data set [13] is Mus musculus. Briefly: Clearance in BALB/c mouse at 10 mg/kg, iv and po. Format: ADME, organism-based. Also noted: dose 10 mg/kg, route oral. The conditions noted are these: in vivo.
For data set [14], the target named is Cyclin-dependent kinase 1 (Homo sapiens, UniProt P06493).
The target in data set [15] is Voltage-gated inwardly rectifying potassium channel KCNH2 (Homo sapiens, UniProt Q12809).
Description: Inhibition of human ERG overexpressed in HEK cells
Data set [16] concerns Caco-2. Conditions: human.
Description: Permeability across apical to basolateral side in human Caco2 cells
Data set [17] is filed under the species Mus musculus. Conditions: SW-620, 160 mg/kg.
The species entered for data set [18] is Mus musculus. Conditions: SW-620, 160 mg/kg. This is another data set of the same source.
A short description of data set [19]: in vitro. The conditions noted are these: mouse, liver microsomes. For orientation: Liver microsomes are a subcellular fraction often used to study metabolism.
Data set [20] deals with Mus musculus. Briefly: Toxicity in athymic mouse xenografted with human Calu6 cells assessed as body weight loss at 75 mg/kg, po tid for 7 days. Also on record: dose 75 mg/kg, route oral. Conditions: in vivo, 168 h. Format: organism-based, Calu-6.
In data set [21] the test system is Mus musculus. Briefly: Toxicity in athymic mouse xenografted with human HT-29 cells assessed as body weight loss at 75 mg/kg, po tid for 7 days. Also noted: dose 75 mg/kg, route oral. Conditions: in vivo, 168 h. Format: organism-based.
Data set [22] has as its system Mus musculus. Briefly: Toxicity in athymic mouse xenografted with human SW620 cells assessed as body weight loss at 75 mg/kg, po tid for 4 days. Format: organism-based, SW-620. Also on record: dose 75 mg/kg, route oral. Conditions: in vivo, 96 h.
Data set [23] has as its target Potassium/sodium hyperpolarization-activated cyclic nucleotide-gated channel 4 (Homo sapiens) (UniProt Q9Y3Q4). Briefly: Inhibition of human HCN4 at 10 uM.
Data set [24] deals with KCNQ1/MINK (IKs) (Homo sapiens, UniProt P15382+P51787). The experiment in a line: Inhibition of human KCNQ1/MINK at 10 uM. Format: protein-complex assay.
The target in data set [25] is Kir2.1 (Homo sapiens, UniProt P63252). The experiment in a line: Inhibition of human Kir2.1 at 10 uM.
The target in data set [26] is Cav1.2 (Homo sapiens, UniProt Q13936). The experiment in a line: Inhibition of human Cav1.2 at 10 uM.
Data set [27] addresses Potassium voltage-gated channel subfamily A member 5 (Homo sapiens) (UniProt P22460). Briefly: Inhibition of human Kv1.5 at 10 uM.
Data set [28] concerns the target Kv4.3/KchIP2 (Homo sapiens, UniProt Q9NS61+Q9UK17). Briefly: Inhibition of human Kv4.3/KchIP2 at 10 uM. Format: protein-complex assay.
For data set [29], the target named is Nav1.5 (Homo sapiens, UniProt Q14524). Briefly: Inhibition of human Nav1.5 at 10 uM.
Data set [30] addresses Interleukin-1 receptor-associated kinase 1 (Homo sapiens) (UniProt P51617). Briefly: Inhibition of human IRAK1 at 1 uM by radiometric assay in presence of ATP.
For data set [31], the target named is High affinity nerve growth factor receptor (Homo sapiens) (UniProt P04629). Briefly: Inhibition of human TRKA at 1 uM by radiometric assay in presence of ATP.
Data set [32] has as its target Serine/threonine-protein kinase BRSK1 (Homo sapiens) (UniProt Q8TDC3). The experiment in a line: Inhibition of human BRSK1 at 1 uM by radiometric assay in presence of ATP.
The target in data set [33] is AMP-activated protein kinase, AMPK (Homo sapiens) (UniProt P54646+O43741+P54619+Q9UGJ0+Q9Y478+Q13131+Q9UGI9). The experiment in a line: Inhibition of human AMPK at 1 uM by radiometric assay in presence of ATP. Format: protein-complex assay.
Data set [34] deals with Ribosomal protein S6 kinase alpha-3 (Homo sapiens) (UniProt P51812). The experiment in a line: Inhibition of human RSK2 at 1 uM by radiometric assay in presence of ATP.
Data set [35] deals with Ribosomal protein S6 kinase alpha-1 (Homo sapiens) (UniProt Q15418). The experiment in a line: Inhibition of human RSK1 at 1 uM by radiometric assay in presence of ATP.
The nature of data set [36]: Drug uptake in human SW620 cells xenografted in athymic nude mouse at 300 mg/kg, po measured at 6 to 12 hrs in presence of gemcitabine. Format: ADME, organism-based, SW-620. Also on record: dose 300 mg/kg, route oral. The conditions noted are these: in vivo.
Data set [37] concerns Mus musculus. Briefly: Inhibition of CHK1 in human SW620 cells xenografted in athymic nude mouse at 300 mg/kg, po measured at 12 hrs by Western blot analysis in presence of gemcitabine. Format: functional, organism-based. Also on record: dose 300 mg/kg. The conditions noted are these: SW-620.
Data set [38] concerns Mus musculus. Briefly: Inhibition of CHK1 autophosphorylation in human SW620 cells xenografted in athymic nude mouse at 300 mg/kg, po measured at 6 hrs by Western blot analysis in presence of gemcitabine. Format: functional, organism-based. Also noted: dose 300 mg/kg. Conditions: SW-620.
Data set [39] concerns the target T1, Serine/threonine-protein kinase Chk1 (Homo sapiens, UniProt O14757).
T1 sequence (O14757 whole entry): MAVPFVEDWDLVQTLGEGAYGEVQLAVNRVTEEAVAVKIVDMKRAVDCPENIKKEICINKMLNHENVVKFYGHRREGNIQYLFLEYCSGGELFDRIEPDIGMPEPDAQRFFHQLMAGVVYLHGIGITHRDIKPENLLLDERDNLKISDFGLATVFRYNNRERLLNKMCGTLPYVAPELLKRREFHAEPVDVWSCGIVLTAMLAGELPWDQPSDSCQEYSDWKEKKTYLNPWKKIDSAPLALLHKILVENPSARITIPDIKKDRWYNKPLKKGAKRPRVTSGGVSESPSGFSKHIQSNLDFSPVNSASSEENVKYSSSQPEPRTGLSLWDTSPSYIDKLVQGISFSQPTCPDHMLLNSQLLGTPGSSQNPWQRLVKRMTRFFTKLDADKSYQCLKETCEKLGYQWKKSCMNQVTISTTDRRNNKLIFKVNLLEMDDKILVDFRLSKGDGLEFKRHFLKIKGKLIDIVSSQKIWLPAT

In data set [40] the test system is Plasma. Briefly: Dose normalized plasma concentration in BALB/c mouse at 1 mg/kg, iv at 6 hrs administered as bolus dose. Format: ADME, organism-based. Also on record: dose 1 mg/kg, route intravenous. The conditions noted are these: in vivo.
Data set [41] concerns Plasma. The experiment in a line: Dose normalized plasma concentration in BALB/c mouse at 1 mg/kg, iv at 1 hr administered as bolus dose. Format: ADME, organism-based. Conditions: in vivo. Also noted: dose 1 mg/kg, route intravenous.

A word on the IC50: it is the concentration that gives 50% inhibition. High values mean weaker potency in that assay, low ones greater potency in that assay. By solubility (thermodynamic) is commonly meant the concentration in solution at equilibrium with solid. For orientation: inhibition means the change of the read-out against control, counted positive when it falls.

Converted amounts (≈) assume the structure as drawn. The source made the active and inactive calls. No cut-off for these calls is given here.

Chain of Serine/threonine-protein kinase Chk2 (O96017 whole entry): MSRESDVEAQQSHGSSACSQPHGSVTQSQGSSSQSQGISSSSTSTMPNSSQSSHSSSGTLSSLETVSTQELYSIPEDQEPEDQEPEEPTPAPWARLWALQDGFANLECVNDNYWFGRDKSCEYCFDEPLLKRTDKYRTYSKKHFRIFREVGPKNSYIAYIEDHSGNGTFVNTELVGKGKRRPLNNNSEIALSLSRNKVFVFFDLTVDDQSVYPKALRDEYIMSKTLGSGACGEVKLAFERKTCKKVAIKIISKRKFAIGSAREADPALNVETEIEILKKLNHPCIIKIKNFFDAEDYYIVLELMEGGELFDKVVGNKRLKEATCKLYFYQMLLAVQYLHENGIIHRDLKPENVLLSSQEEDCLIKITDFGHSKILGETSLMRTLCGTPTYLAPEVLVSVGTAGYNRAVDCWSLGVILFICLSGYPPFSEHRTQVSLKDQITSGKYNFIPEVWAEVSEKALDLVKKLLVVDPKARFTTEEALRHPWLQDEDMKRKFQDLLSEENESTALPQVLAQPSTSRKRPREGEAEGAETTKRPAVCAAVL
Chain of Cyclin-dependent kinase 1 (P06493 whole entry): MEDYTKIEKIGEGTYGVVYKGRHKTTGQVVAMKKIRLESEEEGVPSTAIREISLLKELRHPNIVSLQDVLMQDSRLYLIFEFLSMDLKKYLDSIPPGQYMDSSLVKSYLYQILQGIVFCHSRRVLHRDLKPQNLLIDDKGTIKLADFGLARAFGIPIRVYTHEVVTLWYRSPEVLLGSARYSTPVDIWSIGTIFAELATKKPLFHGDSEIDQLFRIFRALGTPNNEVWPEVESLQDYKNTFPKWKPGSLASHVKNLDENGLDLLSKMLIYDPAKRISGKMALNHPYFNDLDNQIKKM
Chain of Voltage-gated inwardly rectifying potassium channel KCNH2 (Q12809 whole entry): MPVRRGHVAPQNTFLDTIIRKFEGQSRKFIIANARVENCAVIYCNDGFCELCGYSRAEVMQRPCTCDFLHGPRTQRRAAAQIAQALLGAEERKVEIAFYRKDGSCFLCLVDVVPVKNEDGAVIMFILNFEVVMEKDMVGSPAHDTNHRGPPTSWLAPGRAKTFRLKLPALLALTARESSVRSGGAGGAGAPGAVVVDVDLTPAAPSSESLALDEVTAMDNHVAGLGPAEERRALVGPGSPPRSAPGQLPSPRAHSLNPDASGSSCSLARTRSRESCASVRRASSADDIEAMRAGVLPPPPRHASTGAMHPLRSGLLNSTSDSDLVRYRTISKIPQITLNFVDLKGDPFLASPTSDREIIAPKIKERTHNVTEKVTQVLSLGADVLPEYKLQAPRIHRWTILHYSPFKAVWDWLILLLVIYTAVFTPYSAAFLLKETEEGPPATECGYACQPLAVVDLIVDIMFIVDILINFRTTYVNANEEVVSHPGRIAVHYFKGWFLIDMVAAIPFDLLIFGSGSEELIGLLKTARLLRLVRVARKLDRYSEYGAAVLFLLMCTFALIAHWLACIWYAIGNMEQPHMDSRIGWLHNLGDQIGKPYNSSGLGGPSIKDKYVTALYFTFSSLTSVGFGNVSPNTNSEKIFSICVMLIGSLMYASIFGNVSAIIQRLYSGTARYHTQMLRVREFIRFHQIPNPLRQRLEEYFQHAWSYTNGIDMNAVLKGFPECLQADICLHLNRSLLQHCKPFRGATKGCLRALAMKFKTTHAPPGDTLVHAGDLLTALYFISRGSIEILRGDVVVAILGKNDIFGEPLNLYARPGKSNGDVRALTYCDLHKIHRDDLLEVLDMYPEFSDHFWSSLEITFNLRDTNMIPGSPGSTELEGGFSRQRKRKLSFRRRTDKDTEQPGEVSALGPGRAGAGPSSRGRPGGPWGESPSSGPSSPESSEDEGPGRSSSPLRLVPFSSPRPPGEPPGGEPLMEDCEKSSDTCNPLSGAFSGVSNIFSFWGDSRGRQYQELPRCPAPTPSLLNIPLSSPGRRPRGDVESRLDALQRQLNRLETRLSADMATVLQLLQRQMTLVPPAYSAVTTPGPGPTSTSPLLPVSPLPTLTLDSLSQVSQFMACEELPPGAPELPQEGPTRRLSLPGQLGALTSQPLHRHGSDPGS
Chain of KCNQ1/MINK (IKs) (P51787 whole entry): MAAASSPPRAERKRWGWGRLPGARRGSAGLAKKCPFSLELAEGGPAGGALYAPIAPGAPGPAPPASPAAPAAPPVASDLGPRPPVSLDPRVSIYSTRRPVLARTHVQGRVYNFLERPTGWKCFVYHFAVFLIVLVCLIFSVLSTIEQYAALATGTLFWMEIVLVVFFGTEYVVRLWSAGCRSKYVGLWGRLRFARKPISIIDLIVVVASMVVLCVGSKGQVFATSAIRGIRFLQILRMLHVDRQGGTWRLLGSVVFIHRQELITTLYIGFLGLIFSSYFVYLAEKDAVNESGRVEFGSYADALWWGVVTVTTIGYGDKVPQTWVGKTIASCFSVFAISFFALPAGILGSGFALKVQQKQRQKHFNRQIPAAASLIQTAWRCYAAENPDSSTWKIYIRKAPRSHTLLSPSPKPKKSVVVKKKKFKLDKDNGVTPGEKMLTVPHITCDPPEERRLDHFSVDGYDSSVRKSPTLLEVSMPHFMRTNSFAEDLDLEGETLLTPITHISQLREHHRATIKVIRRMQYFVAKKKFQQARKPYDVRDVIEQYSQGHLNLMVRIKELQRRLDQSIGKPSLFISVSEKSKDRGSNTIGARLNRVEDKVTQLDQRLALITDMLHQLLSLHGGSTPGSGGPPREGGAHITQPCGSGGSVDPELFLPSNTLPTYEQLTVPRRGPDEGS
Chain of Serine/threonine-protein kinase BRSK1 (Homo sapiens) (Q8TDC3 whole entry): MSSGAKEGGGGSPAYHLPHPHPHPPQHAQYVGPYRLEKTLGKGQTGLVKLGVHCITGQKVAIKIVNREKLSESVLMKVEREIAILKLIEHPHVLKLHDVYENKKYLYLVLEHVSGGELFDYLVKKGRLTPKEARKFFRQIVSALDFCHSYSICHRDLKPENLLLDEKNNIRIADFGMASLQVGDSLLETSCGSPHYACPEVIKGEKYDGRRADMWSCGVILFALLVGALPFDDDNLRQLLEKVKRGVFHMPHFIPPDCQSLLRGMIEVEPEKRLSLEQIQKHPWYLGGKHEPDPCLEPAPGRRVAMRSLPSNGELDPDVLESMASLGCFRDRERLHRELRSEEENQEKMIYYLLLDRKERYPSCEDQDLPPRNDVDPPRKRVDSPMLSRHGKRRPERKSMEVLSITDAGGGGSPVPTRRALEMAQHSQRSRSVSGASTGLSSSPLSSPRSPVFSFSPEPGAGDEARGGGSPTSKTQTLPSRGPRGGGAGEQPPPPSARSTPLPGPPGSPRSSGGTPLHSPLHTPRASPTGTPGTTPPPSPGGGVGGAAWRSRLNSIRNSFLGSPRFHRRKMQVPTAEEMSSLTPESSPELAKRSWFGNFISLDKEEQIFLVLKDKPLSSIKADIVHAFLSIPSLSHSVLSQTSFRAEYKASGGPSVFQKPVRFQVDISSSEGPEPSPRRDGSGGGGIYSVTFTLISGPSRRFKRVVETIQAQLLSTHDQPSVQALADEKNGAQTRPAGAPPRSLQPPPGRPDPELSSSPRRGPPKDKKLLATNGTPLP
Chain of Potassium/sodium hyperpolarization-activated cyclic nucleotide-gated channel 4 (Homo sapiens) (Q9Y3Q4 whole entry): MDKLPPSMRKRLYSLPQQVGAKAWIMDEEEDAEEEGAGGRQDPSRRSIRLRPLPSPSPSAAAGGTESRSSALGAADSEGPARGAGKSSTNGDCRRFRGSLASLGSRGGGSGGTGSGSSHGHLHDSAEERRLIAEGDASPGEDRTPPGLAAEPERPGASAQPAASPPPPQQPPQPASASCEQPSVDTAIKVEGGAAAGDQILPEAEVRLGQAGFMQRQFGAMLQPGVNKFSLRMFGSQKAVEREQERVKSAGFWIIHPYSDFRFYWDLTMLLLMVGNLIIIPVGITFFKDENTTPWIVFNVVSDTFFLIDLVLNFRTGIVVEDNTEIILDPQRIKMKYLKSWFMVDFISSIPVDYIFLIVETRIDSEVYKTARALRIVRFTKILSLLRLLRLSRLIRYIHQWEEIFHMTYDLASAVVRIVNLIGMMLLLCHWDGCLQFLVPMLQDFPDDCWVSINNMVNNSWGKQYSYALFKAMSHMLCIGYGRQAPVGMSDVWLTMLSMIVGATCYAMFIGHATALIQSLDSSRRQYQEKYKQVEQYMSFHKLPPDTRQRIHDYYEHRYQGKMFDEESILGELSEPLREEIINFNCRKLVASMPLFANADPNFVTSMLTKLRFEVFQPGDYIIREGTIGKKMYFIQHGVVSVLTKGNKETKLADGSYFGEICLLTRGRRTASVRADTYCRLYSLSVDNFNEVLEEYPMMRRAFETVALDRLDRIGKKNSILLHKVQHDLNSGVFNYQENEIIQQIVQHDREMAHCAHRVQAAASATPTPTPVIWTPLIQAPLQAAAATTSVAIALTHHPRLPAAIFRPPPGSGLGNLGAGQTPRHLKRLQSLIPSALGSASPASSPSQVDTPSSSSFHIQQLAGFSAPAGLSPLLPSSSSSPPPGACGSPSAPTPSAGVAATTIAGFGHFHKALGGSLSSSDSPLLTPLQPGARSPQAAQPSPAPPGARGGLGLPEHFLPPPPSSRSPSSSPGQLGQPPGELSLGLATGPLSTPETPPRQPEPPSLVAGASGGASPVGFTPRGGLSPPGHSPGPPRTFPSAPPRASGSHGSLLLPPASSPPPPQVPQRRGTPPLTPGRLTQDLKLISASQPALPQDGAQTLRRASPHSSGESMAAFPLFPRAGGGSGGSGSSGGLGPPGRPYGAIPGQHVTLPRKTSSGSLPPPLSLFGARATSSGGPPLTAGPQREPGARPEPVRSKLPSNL

Consider `CNc1cc(Nc2cnc(C#N)c(O[C@H](C)CN(C)C)n2)ncc1-c1cnn(C)c1`, for which the concentration at 6 h in data set [1] turned out to be 57 nM; in data set [3], 45 nM. For the same molecule, the concentration at 1 h in data set [2] turned out to be 555 nM; in [4], 910 nM. In addition, the results for the IC50 in data set [5], in data set [14] and in data set [15] were 3.2 µM, 10 µM and 12 µM, respectively. In data set [6], the Drug uptake entry is “Active”. The molecule also came in with an MTD in [7] of 160 mg/kg. Besides, the Therm_solubility in [8] turned out to be 100 µg/mL. Further, the thermodynamic solubility in [9] is more than 8000 µg/mL. Besides, the PPB in data set [10] is 70%. The same molecule gave a F in data set [11] of 48%. Moreover, the Vdss in data set [12] came out at 0.209 L. The CL in [13] is 0.132 L/h. For the same molecule, the permeability in [16] came to 8.8 ×10⁻⁶ cm/s. Further, in data set [17], the inhibition result was “inactive”. Moreover, in data set [18], the inhibition result was “Active”. This molecule also had a metabolised at 0.5 h in data set [19] of 30%.
On to `COc1cc(Nc2cnc(C#N)c(O[C@H](C)CN(C)C)n2)ncc1-c1cnn(C)c1`, for which the concentration at 6 h in [1] came out at 52 nM; in data set [3], 27 nM. In addition, the concentration at 1 h was determined as 1120 nM in [2] and 1850 nM in data set [4]. The Activity result in [20], in data set [21] and in data set [22] was “Non-toxic” each time. Moreover, the inhibition is less than 25% in [23]; less than 25% in [27]; more than 80% in data set [30]; more than 80% in data set [31]; more than 80% in [32]; more than 80% in data set [33]. The inhibition in data set [34] and in data set [35] was more than 80% in each case. Moreover, the inhibition at 10 µM in [24], in [25], in data set [26], in data set [28] and in data set [29] was less than 25% each time. The IC50 was more than 10 µM in [5], more than 10 µM in data set [14], 5 µM in [15] and 0.0077 µM in data set [39]. In addition, the Drug uptake entry in data set [36] is given as “Active”. Besides, the inhibition entry in data set [37] and in data set [38] was “Active” throughout. The molecule further registered an MTD in data set [7] of more than 300 mg/kg. For the same molecule, the Therm_solubility in data set [8] was determined as 70 µg/mL. The same molecule displayed a solubility (thermodynamic) in data set [9] of 6200 µg/mL (≈ 15.2 mM). In data set [10], the PPB is listed as 82%. In data set [11], this molecule displayed an F of 61%. The molecule further gave a Vdss in data set [12] of 0.113 L. The molecule further yielded a clearance in data set [13] of 0.125 L/h. In data set [16], this molecule displayed a permeability of 29 ×10⁻⁶ cm/s. In data set [19], this molecule showed a metabolised at 0.5 h of 38%.
`CNc1cc(Nc2cnc(C#N)c(O[C@@H]3CCN(C)C3)n2)ncc1-c1cnn(C)c1` registered a concentration at 6 h in [1] of 12 nM. Besides, the concentration at 1 h in data set [2] turned out to be 193 nM. The Cp/dose was less than 20 nM in [40] and 320 nM in [41]. The midpoint of inhibition in data set [39], the IC50, lay at 0.0044 µM. The same molecule showed a metabolised at 0.5 h in data set [19] of 17%.

Source of the values: ChEMBL document CHEMBL2203133 (J Med Chem, 2012).
